Data from US8088808B2, “Substituted N-phenyl-bipyrrolidine carboxamides and therapeutic use thereof” (Sanofi, priority 2007, dated 2012).
pKi: −log10 of the molar value. Structures can show the parent of a compound that is named as a salt.

How the values were obtained:
[1] = biological target: MCH receptor (Homo sapiens, UniProt Q99705); assay: MCH receptor [125J]-ligand binding filtration assay; settings: 10 μM test compound; percent inhibition of ligand binding
Experimental: The activity of the compounds of this invention at the MCH receptor site, if any was measured by the procedures as set forth below. • Test Compounds The compounds of this invention were stored in a 96-well microtiter plates (1 μL, 10 mM, 100% DMSO). Each of the test sample was diluted with 249 μL of 100% DMSO (dilution 1:250). […] Blank: Assay buffer containing 0.4% DMSO were transferred to the dilution microtiter plates for blanks • Assay Procedure: The filter plates with […] of 0.5% PEI-solution/well were incubated for 2 hours at room temperature. PEI was removed by vacuum filtration just before pipetting (Univac Polyfiltronic/Whatman). The solution of the compound as prepared above (50 μL), or MCH ([…]) or Puffer/DMSO (positive control) were added to 96-well round bottom microtiter plate. Then 50 μl of [^125J]-ligand solution was added followed by 100 μl of membrane suspension. The plates were closed with the lids, and incubated for 60 min. at 25° C. The samples were transferred to GF/B filter plate. The reaction mixture was removed by vacuum filtration, washed 4× with 300 μL ice-cold washing buffer and the washing solution was removed by vacuum filtration. The rubber layer at the bottom of the plate was then removed and the filters were dried over night at room temperature. 25 μL of scintillation cocktail was added and the plates were sealed and, plate frames were added and incubated for 1 hour at room temperature. The radioactivity was then measured, settings ^125J standard, 30 sec./well.

[2] = test system: rhesus H3; assay: GTPγS radioligand binding assay (inhibition of rhesus H3 constitutive functional activity in cell membranes); assay type: biochemical, rhesus monkey (Macaca Mulatta); settings: Table 1; relative to basal level
Experimental: (§1) Rhesus H3 membranes were prepared from the Flp-In T-REx 293 Cell Line (Invitrogen) stably transfected with pcDNA5/FRT/TO (Invitrogen) containing the rhesus monkey (Macaca Mulatta) 445 amino acid H3 receptor. (Genbank #AY231164). Stably transfected cultures were amplified in tissue culture flasks by standard tissue culture methods and induced to express rhesus H3 by exposure to 500 ng/ml tetracycline (Cellgro) for 24 hours. After induction, cells were dissociated from flasks utilizing Cell Stripper (Cellgro). Cells were centrifuged (1K×g, 5 min) and pellet frozen in an ethanol-dry ice bath to disrupt cell membranes. Frozen cell pellet was re-suspended in 5 mM HEPES (pH 7.4, Invitrogen) at 10 ml/1000 cm2 of harvested cells. The cell suspension was drawn through an 18 gauge needle (2-3×) followed by a 23 gauge needle (2-3×) to further disrupt cell membranes. The cell suspension was centrifuged (40K×g, 30 min). Cell membrane pellet was re-suspended in 5 mM HEPES (pH 7.4, Invitrogen) at a final protein concentration of 10 mg/ml. Rhesus H3 membranes were stored under liquid nitrogen prior to use in [3H]-Methylhistamine and GTPγS radioligand binding assays.

[3] = biological target: rhesus (Macaca Mulatta) H3 receptor (Macaca mulatta, UniProt Q865E1); assay: Rhesus H3 radioligand binding assay ([3H]-Methylhistamine displacement, WGA SPA beads); design: species or system rhesus monkey (Macaca Mulatta)
Sequence of rhesus (Macaca Mulatta) H3 receptor (Q865E1 1-445): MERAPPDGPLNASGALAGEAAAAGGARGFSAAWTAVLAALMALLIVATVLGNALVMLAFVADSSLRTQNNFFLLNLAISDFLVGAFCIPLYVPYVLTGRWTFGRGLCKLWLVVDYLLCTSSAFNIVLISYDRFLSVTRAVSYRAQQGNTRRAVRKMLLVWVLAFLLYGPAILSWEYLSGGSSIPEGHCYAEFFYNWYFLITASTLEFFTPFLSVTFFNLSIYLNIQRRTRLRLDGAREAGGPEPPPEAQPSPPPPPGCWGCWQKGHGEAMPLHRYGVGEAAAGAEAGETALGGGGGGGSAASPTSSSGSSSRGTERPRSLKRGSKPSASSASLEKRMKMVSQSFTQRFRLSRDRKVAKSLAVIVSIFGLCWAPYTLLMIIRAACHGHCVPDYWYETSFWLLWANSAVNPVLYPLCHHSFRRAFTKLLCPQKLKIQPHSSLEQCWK
Experimental: as §1, with “(Genbank” for “Rhesus H3 membranes were prepared from the Flp-In T-REx 293 Cell Line (Invitrogen) stably transfected with pcDNA5/FRT/TO (Invitrogen) containing the rhesus monkey (Macaca Mulatta) 445 amino acid H3 receptor. (Genbank”
Rhesus H3 radioligand binding assay was performed using rhesus H3 receptor membranes (prepared as described above), [3H]-Methylhistamine (Perkin Elmer) and WGA SPA beads (wheat germ agglutinin scintillation proximity assay) beads (Amersham). The assay was performed in 96-well Opti-Plates (Packard). Each reaction contained 50 μl rhesus H3 membranes (20-30 μg total protein), 50 μl WGA SPA beads (0.1 μg) and 50 μl of 83 Ci/mmol [^3H]-Methylhistamine (final concentration 2 nM) and 50 μl of tested compound. The compounds of this invention and/or vehicle were diluted with binding buffer from 10 mM DMSO stocks. Assay plates were sealed with TopSeal (Perkin Elmer) and mixed on shaker (25° C., 1 hour). Assay plates were read on TopCount scintillation counter (Packard). Results were analyzed by Hill transformation and Ki values were determined by Cheng-Prusoff equation.

[4] = Table 1, [3H]-Methylhistamine 2 nM, Cheng-Prusoff
[5] = Table 2, procedure of Example 42

Sequence of MCH receptor (Q99705 whole entry): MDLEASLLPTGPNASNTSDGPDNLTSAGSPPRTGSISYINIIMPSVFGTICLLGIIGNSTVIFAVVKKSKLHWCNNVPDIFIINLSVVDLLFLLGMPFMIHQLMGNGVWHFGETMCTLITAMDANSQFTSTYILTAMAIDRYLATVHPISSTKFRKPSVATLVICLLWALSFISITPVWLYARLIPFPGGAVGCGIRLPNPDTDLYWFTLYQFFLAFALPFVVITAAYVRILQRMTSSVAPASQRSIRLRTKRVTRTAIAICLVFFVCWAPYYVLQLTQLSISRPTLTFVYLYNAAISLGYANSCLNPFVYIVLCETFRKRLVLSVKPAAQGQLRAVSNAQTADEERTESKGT

Cc1cc(N2CC[C@H](N3CCC[C@@H]3C)C2)ccc1NC(=O)c1ccoc1 [Example 6, Furan-3-carboxylic acid [2-methyl-4-(2S-methyl-[1,3′S]bipyrrolidinyl-1′-yl)-phenyl]-amide trifluoro-acetate]
inhibition at 10 µM [1]: -6.9% | Inverse Agonism: % inhibition of Basal GTPγS binding in Rhesus H3 [2]: −17% | pKi [3, 4]: 8.74 | pKi [3, 5]: 8.74

CC1CCCN1C1CCN(c2ccc(NC(=O)CC3CCCC3)cc2)C1 (centres unmarked) [Example 36, 2-Cyclopentyl-N-[4-(2-methyl-[1,3′]bipyrrolidinyl-1′-yl)-phenyl]-acetamide trifluoroacetate]
inhibition at 10 µM [1]: 0.7% | Inverse Agonism: % inhibition of Basal GTPγS binding in Rhesus H3 [2]: −33% | pKi [3, 4]: 8.50 | pKi [3, 5]: 8.51

Cc1cc(N2CC[C@H](N3CCC[C@@H]3C)C2)ccc1NC(=O)C1CCCC1 [Example 39, Cyclopentane carboxylic acid [2-methyl-4-(2(S)-methyl-[1,3′ (S)]bipyrrolidinyl-1′-yl)-phenyl]-amide trifluoroacetate]
inhibition at 10 µM [1]: -7.2% | pKi [3, 5]: 9.30

CC1CCCN1C1CCN(c2ccc(NC(=O)C3CC3)cc2)C1 (centres unmarked) [Example 40, Cyclopropanecarboxylic acid [4-(2-methyl-[1,3′]bipyrrolidinyl-1′-yl)-phenyl]-amide trifluoroacetate]
inhibition at 10 µM [1]: -3.4% | pKi [3, 5]: 8.01

Cc1cc(NC(=O)C2CC2)ccc1N1CCC(N2CCCC2C)C1 (centres unmarked) [Example 41, Cyclopropanecarboxylic acid [3-methyl-4-(2-methyl[1,3′]bipyrrolidinyl-1′-yl)-phenyl]-amide trifluoroacetate]
inhibition at 10 µM [1]: -1.3% | pKi [3, 5]: 7.75
